# Experiments:
# [1] = Henry solubility constant Hcp at 298.15 K (mol/(m3 Pa))
# [2] = Henry solubility constant Hcp at 310 K (mol/(m3 Pa))
# [3] = Henry solubility constant Hcp at 296 K (mol/(m3 Pa)); details: reference: Miller and Stuart (2000)
# [4] = Henry solubility constant Hcp at 293 K (mol/(m3 Pa))
# [5] = reference: Smith et al. (1981b)
# [6] = reference: Lerman et al. (1983)
# [7] = reference: Stoelting and Longshore (1972)
# [8] = reference: Johanson and Dynésius (1988)
# [9] = reference: Power and Stegall (1970)
# [10] = reference: Järnberg and Johanson (1995)
# [11] = reference: Bissonette et al. (1990)
# [12] = reference: McIntosh and Heffron (2000)
structure (smiles),measurement,setting,value
"COC(F)(F)C(Cl)Cl [2,2-dichloro-1,1-difluoro-1-methoxyethane]",Henry solubility constant Hcp,[1]; [5],0.0029
same,Henry solubility constant Hcp at 310 K,[2]; [6],0.0017
same,Henry solubility constant Hcp at 310 K,[2]; [7],0.0018
CCOCCO [2-ethoxyethanol],Henry solubility constant Hcp at 310 K,[2]; [8],8.9
"CC1=CCC2C(C1)C2(C)C (centres undefined) [3,7,7-trimethyl-bicyclo[4.1.0]hept-3-ene]",Henry solubility constant Hcp at 310 K,[2]; reference: Falk et al. (1990),0.00016
BrC(Br)Br [tribromomethane],Henry solubility constant Hcp,[1]; reference: Khalfaoui and Newsham (1994a),0.0085
same,Henry solubility constant Hcp,[1]; reference: Munz and Roberts (1987),0.018
same,Henry solubility constant Hcp,[1]; reference: Nicholson et al. (1984),0.016
same,Henry solubility constant Hcp,[1]; reference: Ruiz-Bevia and Fernandez-Torres (2010),0.02
same,Henry solubility constant Hcp,[1]; reference: Warner et al. (1980),0.019
same,Henry solubility constant Hcp at 310 K,[2]; reference: Zhang et al. (2002),0.0096
FS(F)(F)(F)(F)F [sulfur hexafluoride],Henry solubility constant Hcp,[1]; reference: Ashton et al. (1968),2.4e-06
same,Henry solubility constant Hcp,[1]; reference: Bullister et al. (2002),2.3e-06
same,Henry solubility constant Hcp,[1]; reference: Cosgrove and Walkley (1981),2.5e-06
same,Henry solubility constant Hcp,[1]; reference: Friedman (1954),2.2e-06
same,Henry solubility constant Hcp,[1]; reference: Park et al. (1982),2.4e-06
same,Henry solubility constant Hcp at 310 K,[2]; reference: Longo et al. (1970),1.7e-06
same,Henry solubility constant Hcp at 310 K,[2]; [9],1.7e-06
CCCCOCC [1-ethoxy-butane],Henry solubility constant Hcp at 296 K,[3],0.0064
CCOCCOC(C)=O [2-ethoxyethyl ethanoate],Henry solubility constant Hcp at 310 K,[2]; [8],1.5
"C=COCC(F)(F)F [(2,2,2-trifluoroethoxy)-ethene]",Henry solubility constant Hcp,[1]; [5],0.00055
same,Henry solubility constant Hcp at 310 K,[2]; reference: Munson et al. (1964),0.00033
same,Henry solubility constant Hcp at 310 K,[2]; [7],0.00032
"Cc1cc(C)cc(C)c1 [1,3,5-trimethylbenzene]",Henry solubility constant Hcp,[1]; reference: Sanemasa et al. (1981),0.0011
same,Henry solubility constant Hcp at 310 K,[2]; [10],0.00048
"Cc1cccc(C)c1 [1,3-dimethylbenzene]",Henry solubility constant Hcp,[1]; [11],0.0014
same,Henry solubility constant Hcp,[1]; reference: Li et al. (2008),0.0014
same,Henry solubility constant Hcp,[1]; reference: Tsibul’skii et al. (1979),0.0018
same,Henry solubility constant Hcp at 310 K,[2]; [12],0.00066
"Cc1cccc(C)c1C [1,2,3-trimethylbenzene]",Henry solubility constant Hcp at 310 K,[2]; [10],0.0011
"FC(F)(F)C(Cl)Br (centres undefined) [1-bromo-1-chloro-2,2,2-trifluoroethane]",Henry solubility constant Hcp,[1]; [5],0.00053
same,Henry solubility constant Hcp at 310 K,[2]; [6],0.00033
same,Henry solubility constant Hcp at 310 K,[2]; reference: Saidman et al. (1966),0.00034
same,Henry solubility constant Hcp at 310 K,[2]; [7],0.00032
COCCO [2-methoxyethanol],Henry solubility constant Hcp at 310 K,[2]; [8],14
COCC(C)O (centres undefined) [1-methoxy-2-propanol],Henry solubility constant Hcp at 310 K,[2]; [8],4.8
"OCCO [1,2-ethanediol]",Henry solubility constant Hcp,[1]; reference: Butler and Ramchandani (1935),160
same,Henry solubility constant Hcp at 293 K,[4]; reference: Bone et al. (1983),4000
[C-]#[O+] [carbon monoxide],Henry solubility constant Hcp,[1]; reference: Bunsen (1855a),9.5e-06
same,Henry solubility constant Hcp,[1]; reference: Meadows and Spedding (1974),7.9e-05
same,Henry solubility constant Hcp,[1]; reference: Rettich et al. (1982),9.7e-06
same,Henry solubility constant Hcp,[1]; reference: Schmidt (1979),7e-06
same,Henry solubility constant Hcp,[1]; reference: Winkler (1901),9.4e-06
same,Henry solubility constant Hcp at 310 K,[2]; [9],8.3e-06
[Ne] [neon],Henry solubility constant Hcp,[1]; reference: Crovetto et al. (1982),4.4e-06
same,Henry solubility constant Hcp,[1]; reference: Krause and Benson (1989),4.5e-06
same,Henry solubility constant Hcp,[1]; reference: Lannung (1930),4.6e-06
same,Henry solubility constant Hcp,[1]; reference: Morrison and Johnstone (1954),4.5e-06
same,Henry solubility constant Hcp,[1]; reference: von Antropoff (1910),6.6e-06
same,Henry solubility constant Hcp at 310 K,[2]; [9],4.3e-06
"Cc1ccc(C)cc1 [1,4-dimethylbenzene]",Henry solubility constant Hcp,[1]; [11],0.0012
same,Henry solubility constant Hcp,[1]; reference: Bobadilla et al. (2003),0.002
same,Henry solubility constant Hcp,[1]; reference: Li et al. (2008),0.0014
same,Henry solubility constant Hcp,[1]; reference: Lin and Chou (2006),0.0016
same,Henry solubility constant Hcp,[1]; reference: Park et al. (1997),0.00098
same,Henry solubility constant Hcp,[1]; reference: Wasik and Tsang (1970),0.0023
same,Henry solubility constant Hcp at 310 K,[2]; [12],0.00067
[134Xe] [xenon-133],Henry solubility constant Hcp at 310 K,[2]; reference: Ercan (1979),3.2e-05
c1ccc2c(c1)ccc1ccccc12 [phenanthrene],Henry solubility constant Hcp,[1]; reference: Alaee et al. (1996),0.21
same,Henry solubility constant Hcp,[1]; reference: Bamford et al. (1999b),0.16
same,Henry solubility constant Hcp,[1]; reference: Mackay et al. (1979),0.25
same,Henry solubility constant Hcp,[1]; reference: Odabasi et al. (2006),0.27
same,Henry solubility constant Hcp,[1]; reference: Southworth (1979),0.18
same,Henry solubility constant Hcp at 293 K,[4]; reference: De Maagd et al. (1998),0.34
"FC(F)OC(Cl)C(F)(F)F (centres undefined) [1-chloro-2,2,2-trifluoroethyl difluoromethyl ether]",Henry solubility constant Hcp,[1]; [5],0.00048
same,Henry solubility constant Hcp at 310 K,[2]; [6],0.00024
"FC(Br)C(F)(F)F (centres undefined) [1-bromo-1,2,2,2-tetrafluoroethane]",Henry solubility constant Hcp at 310 K,[2]; reference: Edelist et al. (1964),0.00012
CCOCC [diethyl ether],Henry solubility constant Hcp,[1]; reference: Bachofen and Farhi (1971),0.013
same,Henry solubility constant Hcp,[1]; reference: Nielsen et al. (1994),0.011
same,Henry solubility constant Hcp,[1]; reference: Ondo and Dohnal (2007),0.01
same,Henry solubility constant Hcp,[1]; reference: Signer et al. (1969),0.0078
same,Henry solubility constant Hcp at 293 K,[4]; reference: Yu (1992),0.0033
same,Henry solubility constant Hcp at 310 K,[2]; reference: Brody et al. (1971),0.0063
same,Henry solubility constant Hcp at 310 K,[2]; reference: Eger et al. (1963),0.0051

# From Sander's compilation of Henry's law constants
